Assays:
Format in all cases: in vivo
129/Svev/IL-10KO mouse = assay: Small intestinal permeability by lactulose mannitol test in IL-10 KO mouse; conditions: high dose AT-1001 (1 mg/ml in drinking water, ad libidum), FIGS. 1-4
Procedure: (§1) The purpose of this study is to determine the ability of AT-1001, administered daily in drinking water to alter intestinal permeability (measured by absorption/excretion of lactulose and mannitol) and to inhibit the development of colitis in the 129/Svev/IL-10KO mouse.
AT-1001 neat chemical will be administered ad libidum every day starting at day 1 to Group 3 at 0.1 mg/ml and Group 4 at 1 mg/ml in sterile water via the drinking water supply. Dosing of AT-1001 will be continued when the animals are in the metabolic cages for 22 hours. Probiotic conditioned medium will be given every morning to Group 2. The solution is prepared by dissolving 0.01 g in 10 ml of MRS medium and incubating it at 37° C. for 24 h. After incubation, the tube will be centrifuged 10 minutes at 10,000 rpm. The supernatant will be filtered through a 0.22 micron filter and diluted 1:10 with MRS medium. Animals will receive 30 μl of this dilution every morning. The conditioned media must be prepared fresh every morning.
Each week, food and water will be removed 4 hours prior to gavage. […]
During each intestinal permeability trial, all subjects will be gavaged with suc/lac/man/sucralose solution and placed in metabolic cages immediately after to enable urine collection. […] All sugars will be quantified by ion exchange HPLC. […]

[1] = test system: 129/Svev/IL-10KO mouse colon; assay: Colonic permeability and electrical resistance, Ussing chamber measurements, IL-10 KO mouse; conditions: at 8 weeks of age, AT-1001 in drinking water, versus untreated animals
Procedure: as §1
(§2) FIG. 5-10 show the results of analysis of disease in the colon. Disease in the colon was evaluated at both 8 and 17 week time points. The former with Ussing chamber measurements and the latter with histology, mucosal cytokine secretion, MPO and sucralose permeability.

[2] = test system: 129/Svev/IL-10KO mouse colon; assay: Colonic inflammation (histology, mucosal cytokine secretion, MPO) in IL-10 KO mouse; conditions: at 17 weeks; AT-1001 in drinking water
Text: as §1
Immediately upon expiration, stomachs, small intestines, and colons will be collected and weighed. Each tissue will be scored for macroscopic lesions to assess intestinal damage by the Study Pathologist. ELISAs will be performed on each tissue to measure the levels of MPO, IL-8, TNFα, and IFNγ. A section of the tissues will be fixed in formalin for HE histology. The day after the final intestinal permeability measures on day 77, all surviving animals will be euthanized and intestinal tissues collected and processed.
as §2

Substance: AT-1001
- increase in small intestinal permeability associated with development of disease (129/Svev/IL-10KO mouse): abrogated
- colonic electrical resistance [1]: prevented the reduction in electrical resistance
- colonic permeability to mannitol [1]: reduced colonic permeability to mannitol
- tissue markers of colonic inflammation (neutrophil infiltration/MPO, TNF and IFN secretion over 24 hours) [2]: reduced all tissue markers of colonic inflammation that were measured
